{"source": "PubChem BioAssay AID2467", "about": "(Broad Institute, 2010)", "test_system": "C. albicans growth with fluconazole, fluorescence", "test": "C. albicans growth with fluconazole, confirmation, fluorescence, retest (AID 2467)", "note": "“And” between values parts separate entries of the source, which are not always exact repeats. Identical values can stand only once. Results filed as inconclusive are left out. The source made the active and inactive calls. No rule for the calls is given here."}
{"smiles": "c1cnc2c(c1)ccc1cccnc12", "values": [{"measurement": "EC50", "result": "> 3800 nM (inactive)"}]}
{"smiles": "NC(=NCCCCCCN=C(N)/N=C(\\N)Nc1ccc(Cl)cc1)/N=C(\\N)Nc1ccc(Cl)cc1", "values": [{"measurement": "EC50", "result": "635 nM and 308 nM and 649 nM"}]}
